These are literature values, as cited in patent publication US20220378706A1, “PHARMACEUTICAL COMPOSITION COMPRISING PDE9 INHIBITOR” (Eisai R&D Management Co., Ltd., priority 2017, published 2022).

In the data set the test system is CSF cGMP. The settings on record: healthy subjects, 40 mg; cited from earlier work.

In the case of `C[C@@H]1CN(Cc2ncccn2)C[C@H]1c1nc2c(cnn2C2CCOCC2)c(=O)[nH]1` [PF 04447943], the “CSF cGMP elevation” value is reported as “CSF cGMP elevation was demonstrated”.
